According to patent publication US20190070159A1, “NOVEL PHARMACEUTICAL USES” (TAKEDA PHARMACEUTICAL COMPANY LIMITED, priority 2015, published 2019):

Tests used:
[1] = tested on: non-erosive reflux disease (NERD); settings: NERD patients, cited from earlier work
pH holding time = settings: cited from earlier work
[2] = tested on: GERD symptoms (heartburn and acid regurgitation); experiment: Clinical study in PPI partial responders (NERD and LA grade A EE), symptom diary; type: in vivo, human; settings: TAK-438 20 mg QD or 40 mg QD for 4 weeks
Experimental: A study is held to evaluate TAK-438 (20 mg QD and 40 mg QD) in subjects who have a history of heartburn-predominant GERD despite an adequate course of PPI treatment and who are then confirmed to have a partial response to a 4-week treatment course with a PPI (esomeprazole 40 mg QD).
Subjects are eligible for participation in the study if they: • have a documented history of symptoms of both heartburn and acid regurgitation prior to entry into the study; • have a history of heartburn-predominant GERD despite an adequate course of PPI treatment; • continue to have symptoms of heartburn (with or without regurgitation) following 4 weeks treatment with a high dose of esomeprazole 40 mg QD; • have symptoms of heartburn (with or without regurgitation) which increase following a 2-week washout period compared with the prior 4 week course of high dose esomeprazole 40 mg QD.
The subjects entered into the study are NERD and mild (LA grade A, as defined by the Los Angeles Classification) erosive esophagitis (EE). […]

erosive esophagitis (EE) = settings: patients with erosive esophagitis; cited from earlier work
[3] = tested on: PPI-resistant EE of LA Classification Grades A to D; experiment: EE healing rate after 8-week treatment, phase 3 study in PPI-resistant EE patients; type: in vivo, human
Experimental: (§1) This was a phase 3, randomized, double-blind, parallel-group, multicenter study to evaluate the dose-response relationships of the acid-inhibitory effect and efficacy of TAK-438 (20 mg and 40 mg) in patients with PPI-resistant EE of LA Classification Grades A to D.
(§2) A patient with PPI-resistant EE was defined as a patient who had EE of LA Classification Grades A to D endoscopically confirmed at the examination in the run-in period after receiving a regular or higher PPI dose for at least 8 weeks until immediately before the start of the run-in period. This study consisted of a 7- to 14-day run-in period and an 8-week treatment period. Subjects who entered the run-in period orally received 1 capsule of the PPI lansoprazole 30 mg once daily after breakfast for at least 7 days, but not more than 14 days. As a rule, subjects underwent endoscopic examination 2 days before the end of the run-in period, after receiving the study medication for the run-in period for at least 5 days. The acid-inhibitory effect of the study medication during the run-in period was evaluated by monitoring gastroesophageal pH for 24 hours, beginning from the day before the end of the run-in period. The subject was then randomized at a 1:1 ratio to receive either TAK-438 20 mg or 40 mg and entered the treatment period. Subjects orally received the assigned medications once daily after breakfast for 8 weeks from the day after the end of the run-in period.
Subject eligibility for this study required that the subject had received a regular or higher dose of PPI for EE treatment for at least 8 weeks until immediately before the start of the run-in period. In addition, the subject had EE for which a regular or higher dose of PPI had not been effective, or more specifically, the subject had EE of LA Classification Grades A to D endoscopically confirmed at the examination in the run-in period.
The secondary endpoint was the EE healing rate after 8-week treatment with TAK-438.

gastric acid secretion [4] = experiment: 24-hour gastroesophageal pH monitoring, phase 3 study in PPI-resistant EE patients; type: in vivo, human
Experimental: as §1, §2
Efficacy: The primary endpoint was the time course of gastroesophageal pH changes over 24 hours at steady state in the treatment period. The primary measure was gastric and esophageal pH 4 holding time ratios (HTRs). Other measures were gastric and esophageal pH 1, 2, 3, 5, 6, and 7 HTRs, mean gastric pH, and mean esophageal pH.

gastric acid secretion [5] = settings: rats, versus the PPI lansoprazole; cited from earlier work
[6] = Safety and tolerability, phase 3 study in PPI-resistant EE patients; type: in vivo, human; settings: subjects with PPI-resistant EE of LA Grades A to D, 20 mg or 40 mg for 8 weeks
Experimental: as §1
as §2, with “Subjects orally received the assigned medications once daily after breakfast for 8 weeks from the day after the end of the run-in period.” left out

[7] = TAK-438 20 mg once daily, after 2 weeks, subjects with PPI-resistant EE
[8] = TAK-438 40 mg once daily, after 2 weeks, subjects with PPI-resistant EE
[9] = both treatment groups (20 mg and 40 mg), after 2 weeks

## Cc1cccc(C)c1CNc1cc(C(=O)NCCO)cn2c(C)c(C)nc12 [AZD0865]
[1]; 4 weeks
  clinical benefit over esomeprazole in treatment of NERD symptoms: did not provide clinical benefit over esomeprazole
[1]
  duration of effect: prolonged, dose-dependent duration of effect
  inhibition of acid production: rapid inhibition of acid production

## CNCc1cc(-c2ccccc2F)n(S(=O)(=O)c2cccnc2)c1.O=C(O)/C=C/C(=O)O [TAK-438, 1-[5-(2-fluorophenyl)-1-(pyridin-3-ylsulfonyl)-1H-pyrrol-3-yl]-N-methylmethanamine]
pH holding time; after dosing, maintained with chronic dosing
  time to near maximal effect on pH holding time: ≤ 24 hours
pH holding time; after the first dose, single and multiple repeat-dosing studies
  onset of action: rapid onset of action after the first dose
[2]
  heartburn and/or regurgitation symptoms: can reduce heartburn and/or regurgitation symptoms throughout the whole day and night
  percentage of heartburn-free days and nights (24-hour periods): can increase the percentage of heartburn-free days and nights
Erosive esophagitis (EE)
  efficacy in treatment of EE and maintenance of EE healing: effective for the treatment of EE and maintenance of EE healing
[3]; TAK-438 20 mg group, 4 out of 9 subjects
  EE healing rate after 8-week treatment: 44.4%
[3]; TAK-438 40 mg group, 5 out of 9 subjects
  EE healing rate after 8-week treatment: 55.6%
[3]; subjects with PPI-resistant EE of LA Grades A to D, 20 mg or 40 mg
  overall efficacy: effective
Gastric acid secretion [4]; [7]
  mean 24-hour esophageal pH 4 HTR: 98.41%
  mean 24-hour gastric pH 4 HTR: 96.46%
Gastric acid secretion [4]; TAK-438 20 mg or 40 mg, nighttime as well as daytime, subjects with PPI-resistant EE
  effect on gastric acid secretion: suppressed gastric acid secretion
Gastric acid secretion [4]; [8]
  mean 24-hour esophageal pH 4 HTR: 99.86%
  mean 24-hour gastric pH 4 HTR: 100.00%
Gastric acid secretion [4]; after 2 weeks, differences between groups not statistically significant
  increases in gastric and esophageal pH 4 HTRs, 40 mg versus 20 mg group: greater in the TAK-438 40 mg group than in the TAK-438 20 mg group
Gastric acid secretion [4]; [9]
  mean 24-hour esophageal pH 1, 2, 3, 6, and 7 HTRs, change from baseline: remained almost unchanged
  mean 24-hour esophageal pH 5 HTR, change from baseline: slightly increased
  mean 24-hour gastric pH 2, 3, 5, 6, and 7 HTRs, change from baseline: increased from baseline
Gastric acid secretion [4]; both treatment groups (20 mg and 40 mg), after 2 weeks of TAK-438, baseline also 100.00%
  mean 24-hour gastric pH 1 HTR: 100.00%
Gastric acid secretion [4]; both treatment groups, 12-hour and 24-hour periods
  mean gastric pH, change from baseline: increased from baseline
Gastric acid secretion [4]; both treatment groups, changes greater during nighttime than daytime
  mean gastric pH 4 HTRs during daytime and nighttime: increased during both the daytime and nighttime with statistical significance
Gastric acid secretion [4]; both treatment groups, lesser extent than mean gastric pH
  mean esophageal pH, change from baseline: also increased
Gastric acid secretion [4]; both treatment groups, lower limits of 95% CI of mean changes greater than 0
  significance of increase from baseline in 24-hour gastric pH 4 HTR: statistically significant
Gastric acid secretion [4]; either treatment group (20 mg, 40 mg)
  significance of change from baseline in 24-hour esophageal pH 4 HTR: not statistically significant
Gastric acid secretion [5]
  inhibitory action on gastric acid secretion compared with lansoprazole: more potent and longer-lasting
[6]
  safety and tolerability: safe, and well tolerated
